The record followed here is ChEMBL document CHEMBL1201862, “PubChem BioAssay data set” (2004).

One assay deals with Phospholipase D2 (Homo sapiens, UniProt O14939). As to the kind of experiment: PLD2 inhibitor potency in cells, dose response (AID 602147).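 Also: cellular assay in HEK293 cells overexpressing GFP-tagged PLD2.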 The class given is functional.
Another assay has as its target Phospholipase D1 (Homo sapiens, UniProt Q13393). Put plainly: PLD1 inhibitor potency in cells, dose response (AID 602151).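 Also: cellular PLD1 assay in Calu-1 cells stimulated with PMA.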 The class given is functional.
The target in assay [1] is T1, Microphthalmia-associated transcription factor (Homo sapiens, UniProt O75030).
T1 sequence (O75030 whole entry): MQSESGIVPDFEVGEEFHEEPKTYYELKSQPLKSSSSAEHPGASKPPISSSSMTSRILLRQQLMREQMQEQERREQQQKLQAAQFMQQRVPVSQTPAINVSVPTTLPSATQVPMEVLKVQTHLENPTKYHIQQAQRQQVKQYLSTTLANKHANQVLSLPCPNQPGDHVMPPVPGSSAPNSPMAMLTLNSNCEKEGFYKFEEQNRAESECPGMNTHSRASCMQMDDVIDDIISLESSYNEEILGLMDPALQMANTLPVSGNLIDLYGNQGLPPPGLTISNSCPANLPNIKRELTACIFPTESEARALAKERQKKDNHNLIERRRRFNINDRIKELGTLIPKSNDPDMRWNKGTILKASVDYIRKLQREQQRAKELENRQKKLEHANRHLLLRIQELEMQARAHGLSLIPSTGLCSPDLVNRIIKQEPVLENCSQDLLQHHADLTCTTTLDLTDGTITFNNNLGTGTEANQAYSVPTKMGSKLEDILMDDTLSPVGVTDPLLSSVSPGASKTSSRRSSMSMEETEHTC
Put plainly: TRPM1 promoter luciferase signal decrease, dose response, MITF inhibitor project, cell-based, SK-MEL-5, cherry-picked, set 3 (AID 493073).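 Also: SK-MEL-5 melanoma cells with luciferase driven by the MITF target TRPM1 promoter.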 Type of assay: functional.

A further assay addresses Mu-type opioid receptor (Homo sapiens, UniProt P35372). Put plainly: Counterscreen for agonists of heterodimerization of the mu 1 (OPRM1) and delta 1 (OPRD1) opioid receptors: Luminescence-based cell-based high throughput dose response assay to identify agonists of OPRM1 homodimerization. The class given is functional.
Assay [2] has as its target Delta-type opioid receptor (Homo sapiens, UniProt P41143). As to the kind of experiment: Counterscreen for agonists of heterodimerization of the mu 1 (OPRM1) and delta 1 (OPRD1) opioid receptors: Luminescence-based cell-based high throughput dose response assay to identify agonists of OPRD1 homodimerization. [Related pubchem assays (depositor defined):AID504326, AID504355, AID504692, AID504904, AID504905]. Type of assay: functional.

Assay [3] deals with A-375. As to the kind of experiment: MITF: Counter assay: A375 proliferation Measured in Cell-Based System Using Plate Reader - 2084-03_Inhibitor_Dose_DryPowder_Activity. [Related pubchem assays (depositor defined):AID488944]. Type of assay: functional. The settings on record: Homo sapiens.
Assay [4] concerns the target 5-hydroxytryptamine receptor 5A (Homo sapiens, UniProt P47898). Put plainly: Counterscreen for agonists of OPRM1-OPRD1 heterodimerization: luminescence-based cell-based high throughput dose response assay to identify agonists of 5-hydroxytryptamine (serotonin) 5A receptor (HTR5A). [Related pubchem assays (depositor defined):AID504326, AID504355, AID504692, AID504904, AID504905]. The class given is functional.

Another assay addresses CAAX prenyl protease 2 (Homo sapiens, UniProt Q9Y256). Put plainly: human Rce1 protease inhibitors, dose response, biochemical, yeast membranes, quenched-peptide fluorescence, cherry-pick (AID 588849).
Assay [5] concerns A-375. Put plainly: A375 melanoma cell viability reduction, dose response, counter-screen for MITF modulator project, cherry-pick samples, set 2 (AID 540335). The conditions noted are these: Homo sapiens. Type of assay: functional, cell-based.
Assay [6] can be described thus: Luminescence Cell-Based Dose Response Follow up to Identify Inhibitors of Platelet Dense Granule Release. [Related pubchem assays (depositor defined):AID1663, AID1678, AID2398]. The class given is functional.
Assay [7] deals with ATP-dependent molecular chaperone HSP82 (Candida albicans (strain WO-1) (Yeast), UniProt C4YTQ8). As to the kind of experiment: loss of DOC-induced GRE-beta-galactosidase reporter signal, dose response, Hsp90 inhibitor project, S. cerevisiae, luminescence (AID 2400).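 Also: beta-galactosidase luminescence from glucocorticoid response element reporter as proxy for Hsp90 function; inhibitor potency where signal loss means Hsp90 inhibition.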 The class given is functional, cell-based.
Assay [8] can be described thus: NIH-3T3 fibroblast cytotoxicity, dose response, cytotoxicity control, cell-based, fluorescence, Alamar Blue, secondary assay (AID 2327).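 Also: NIH-3T3 mouse fibroblasts cultured with fluconazole at 8 µg/mL.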 The class given is functional. In general terms: The colour change of resazurin is a common sign of viable cells or microbes.
The target in assay [9] is T2, Calpain-2 catalytic subunit (Sus scrofa, UniProt P43367).
T2 sequence (P43367 whole entry): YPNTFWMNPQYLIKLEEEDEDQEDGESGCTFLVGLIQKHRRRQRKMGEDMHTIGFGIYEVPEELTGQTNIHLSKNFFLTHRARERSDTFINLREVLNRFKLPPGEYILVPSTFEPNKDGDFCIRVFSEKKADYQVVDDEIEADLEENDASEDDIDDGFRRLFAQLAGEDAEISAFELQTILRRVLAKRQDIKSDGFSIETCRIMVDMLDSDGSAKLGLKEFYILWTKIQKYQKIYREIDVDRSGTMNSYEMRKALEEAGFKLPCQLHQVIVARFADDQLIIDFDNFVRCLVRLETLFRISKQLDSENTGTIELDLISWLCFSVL
As to the kind of experiment: pig calpain II inhibitor potency, dose response, biochemical, fluorogenic peptide substrate (AID 1420). Type of assay: functional.

The target of assay [10] is Serine/threonine-protein phosphatase (Candida dubliniensis (strain CD36 / CBS 7987 / NCPF 3949 / NRRLY-17841) (Yeast), UniProt B9W6M3). As to the kind of experiment: calcineurin pathway inhibitors in yeast reporter, dose response, S. cerevisiae, CDRE-lacZ, luminescence, secondary (AID 2388).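 Also: yeast reporter cells carrying a calcineurin-responsive lacZ construct stimulated with calcium chloride; luminescent beta-galactosidase reporter signal in whole cells rather than isolated phosphatase activity; potency for inhibition where a drop in reporter signal means calcineurin blockade.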 The class given is functional, cell-based.
Assay [11] in a line: C. albicans growth with fluconazole, confirmation, fluorescence, retest (AID 2467). Type of assay: functional, cell-based.
The target in assay [12] is Beta-2 adrenergic receptor (Homo sapiens, UniProt P07550). Put plainly: beta2AR agonists driving receptor internalization, dose response, cell-based, FAP fluorogen, flow cytometry, cherry pick 1 (AID 588763). The class given is functional.
The nature of assay [13]: growth suppression of PTEN-null colon cells, dose response, cell-based, HCT116 PTEN knockout (AID 1047).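 Also: HCT116 colon tumor cells with PTEN knocked out; cells exposed to compound for 60 hours before readout; potency for loss of cell viability measured by luminescence.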 Type of assay: functional.
Assay [14] is described as follows: growth suppression of beta-catenin-knockout colon cells, dose response, cell-based, HCT116, human colon tumor (AID 1045).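 Also: HCT116 colon tumor cells with beta catenin knocked out; cells exposed to compound for 60 hours.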 The class given is functional.
For assay [15], the target named is G-protein coupled receptor 55 (Homo sapiens, UniProt Q9Y2T6). As to the kind of experiment: GPR55 agonists via beta-arrestin recruitment, primary screen, imaging, U2OS cells, beta-arrestin-GFP redistribution (AID 1961). The class given is functional. A general note: Activated receptors often draw arrestin, which recruitment assays turn into a signal.

Structures are written as SMILES. Activity calls are given as the source filed them. Some results are limits rather than exact numbers.

Chain of Phospholipase D1 (Q13393 whole entry): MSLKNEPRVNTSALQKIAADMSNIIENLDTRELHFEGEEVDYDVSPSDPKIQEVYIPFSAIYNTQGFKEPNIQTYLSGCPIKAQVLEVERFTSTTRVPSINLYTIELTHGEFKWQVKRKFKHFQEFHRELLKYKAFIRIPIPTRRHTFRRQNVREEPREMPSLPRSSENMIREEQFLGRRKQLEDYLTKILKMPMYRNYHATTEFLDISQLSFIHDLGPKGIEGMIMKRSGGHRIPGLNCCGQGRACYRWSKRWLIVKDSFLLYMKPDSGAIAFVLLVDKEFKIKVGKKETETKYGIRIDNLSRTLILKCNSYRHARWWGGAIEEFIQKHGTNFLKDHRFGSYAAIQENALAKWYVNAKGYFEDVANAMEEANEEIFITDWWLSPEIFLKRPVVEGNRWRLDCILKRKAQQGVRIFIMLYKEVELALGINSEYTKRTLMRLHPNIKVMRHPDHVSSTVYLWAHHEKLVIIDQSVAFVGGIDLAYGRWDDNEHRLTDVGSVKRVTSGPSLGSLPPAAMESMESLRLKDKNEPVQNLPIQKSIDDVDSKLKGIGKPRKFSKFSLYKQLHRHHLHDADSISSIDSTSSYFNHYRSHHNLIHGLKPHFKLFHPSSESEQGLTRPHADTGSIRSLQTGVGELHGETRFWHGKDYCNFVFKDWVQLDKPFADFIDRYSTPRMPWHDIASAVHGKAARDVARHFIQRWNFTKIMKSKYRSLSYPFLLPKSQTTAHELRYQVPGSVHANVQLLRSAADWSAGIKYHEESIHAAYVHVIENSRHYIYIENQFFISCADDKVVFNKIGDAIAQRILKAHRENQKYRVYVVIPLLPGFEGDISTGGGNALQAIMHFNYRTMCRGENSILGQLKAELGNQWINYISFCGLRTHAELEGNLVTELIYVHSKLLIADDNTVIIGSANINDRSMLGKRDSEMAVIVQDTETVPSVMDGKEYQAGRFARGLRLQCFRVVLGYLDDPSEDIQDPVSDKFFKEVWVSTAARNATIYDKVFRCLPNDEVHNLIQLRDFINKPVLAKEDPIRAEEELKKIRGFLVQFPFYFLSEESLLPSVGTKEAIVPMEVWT
Chain of G-protein coupled receptor 55 (Q9Y2T6 whole entry): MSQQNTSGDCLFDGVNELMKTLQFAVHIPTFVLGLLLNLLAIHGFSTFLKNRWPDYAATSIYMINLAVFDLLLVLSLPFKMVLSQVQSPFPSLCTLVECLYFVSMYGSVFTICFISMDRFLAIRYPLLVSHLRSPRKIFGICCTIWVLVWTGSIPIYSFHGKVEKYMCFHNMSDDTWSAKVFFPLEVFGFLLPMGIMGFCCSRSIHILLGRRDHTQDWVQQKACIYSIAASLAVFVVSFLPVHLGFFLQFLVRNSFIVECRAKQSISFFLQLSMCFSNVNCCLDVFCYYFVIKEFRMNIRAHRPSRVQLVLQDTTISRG
Chain of Serine/threonine-protein phosphatase (B9W6M3 whole entry): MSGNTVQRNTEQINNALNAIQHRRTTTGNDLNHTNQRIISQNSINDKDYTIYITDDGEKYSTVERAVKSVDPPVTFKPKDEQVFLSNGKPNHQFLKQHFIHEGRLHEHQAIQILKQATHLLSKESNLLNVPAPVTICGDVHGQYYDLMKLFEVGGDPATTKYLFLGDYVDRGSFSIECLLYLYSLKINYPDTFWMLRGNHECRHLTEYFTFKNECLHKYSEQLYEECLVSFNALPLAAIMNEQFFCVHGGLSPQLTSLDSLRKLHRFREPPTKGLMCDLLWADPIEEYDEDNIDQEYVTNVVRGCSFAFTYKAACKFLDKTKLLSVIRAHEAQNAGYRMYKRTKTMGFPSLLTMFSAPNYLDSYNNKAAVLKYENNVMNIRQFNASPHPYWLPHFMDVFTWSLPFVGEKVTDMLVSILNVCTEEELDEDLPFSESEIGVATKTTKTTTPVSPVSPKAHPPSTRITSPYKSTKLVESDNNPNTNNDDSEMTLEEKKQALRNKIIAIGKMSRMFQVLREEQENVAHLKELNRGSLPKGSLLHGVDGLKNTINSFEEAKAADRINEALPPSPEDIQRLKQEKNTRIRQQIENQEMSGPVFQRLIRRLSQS
Chain of Delta-type opioid receptor (P41143 whole entry): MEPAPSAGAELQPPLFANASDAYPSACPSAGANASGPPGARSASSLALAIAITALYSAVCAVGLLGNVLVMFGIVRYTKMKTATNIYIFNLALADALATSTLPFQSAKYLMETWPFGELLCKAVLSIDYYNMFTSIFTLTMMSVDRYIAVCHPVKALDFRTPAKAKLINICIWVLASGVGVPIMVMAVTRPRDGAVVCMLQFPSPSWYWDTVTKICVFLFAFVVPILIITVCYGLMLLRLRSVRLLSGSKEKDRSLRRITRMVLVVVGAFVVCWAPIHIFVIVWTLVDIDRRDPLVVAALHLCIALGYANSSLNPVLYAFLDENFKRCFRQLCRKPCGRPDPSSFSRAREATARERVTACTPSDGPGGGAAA
Chain of 5-hydroxytryptamine receptor 5A (P47898 whole entry): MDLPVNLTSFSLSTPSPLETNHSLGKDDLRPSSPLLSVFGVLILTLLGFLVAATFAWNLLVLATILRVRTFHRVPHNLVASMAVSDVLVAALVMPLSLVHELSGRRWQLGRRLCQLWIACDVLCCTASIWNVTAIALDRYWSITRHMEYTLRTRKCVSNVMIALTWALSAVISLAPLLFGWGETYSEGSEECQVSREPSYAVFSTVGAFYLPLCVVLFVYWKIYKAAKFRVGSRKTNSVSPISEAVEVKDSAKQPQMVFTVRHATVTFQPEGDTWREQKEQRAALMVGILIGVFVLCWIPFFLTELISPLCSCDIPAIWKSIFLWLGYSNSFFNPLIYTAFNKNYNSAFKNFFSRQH
Chain of Phospholipase D2 (O14939 whole entry): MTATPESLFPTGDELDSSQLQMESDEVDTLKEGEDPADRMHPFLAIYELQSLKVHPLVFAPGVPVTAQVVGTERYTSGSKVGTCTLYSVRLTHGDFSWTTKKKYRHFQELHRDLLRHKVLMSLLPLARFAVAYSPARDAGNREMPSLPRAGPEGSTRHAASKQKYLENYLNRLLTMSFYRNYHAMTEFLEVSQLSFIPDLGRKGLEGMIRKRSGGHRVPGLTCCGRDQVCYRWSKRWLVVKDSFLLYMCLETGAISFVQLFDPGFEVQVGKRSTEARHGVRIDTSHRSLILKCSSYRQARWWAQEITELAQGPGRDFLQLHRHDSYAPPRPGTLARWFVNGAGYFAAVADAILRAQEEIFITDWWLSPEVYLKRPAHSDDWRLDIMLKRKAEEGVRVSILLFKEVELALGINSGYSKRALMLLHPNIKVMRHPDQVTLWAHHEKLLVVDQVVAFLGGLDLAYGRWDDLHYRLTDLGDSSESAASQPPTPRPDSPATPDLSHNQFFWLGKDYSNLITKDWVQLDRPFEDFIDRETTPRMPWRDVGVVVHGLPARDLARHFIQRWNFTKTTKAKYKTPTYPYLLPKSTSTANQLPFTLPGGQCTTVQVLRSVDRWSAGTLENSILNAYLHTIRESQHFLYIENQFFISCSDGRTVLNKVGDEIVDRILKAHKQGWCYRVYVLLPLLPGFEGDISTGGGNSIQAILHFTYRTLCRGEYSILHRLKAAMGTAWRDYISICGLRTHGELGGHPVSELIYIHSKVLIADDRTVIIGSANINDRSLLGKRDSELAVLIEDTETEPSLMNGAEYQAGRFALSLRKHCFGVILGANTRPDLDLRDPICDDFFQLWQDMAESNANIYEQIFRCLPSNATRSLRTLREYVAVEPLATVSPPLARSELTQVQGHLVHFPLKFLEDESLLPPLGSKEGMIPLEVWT
Chain of Mu-type opioid receptor (P35372 whole entry): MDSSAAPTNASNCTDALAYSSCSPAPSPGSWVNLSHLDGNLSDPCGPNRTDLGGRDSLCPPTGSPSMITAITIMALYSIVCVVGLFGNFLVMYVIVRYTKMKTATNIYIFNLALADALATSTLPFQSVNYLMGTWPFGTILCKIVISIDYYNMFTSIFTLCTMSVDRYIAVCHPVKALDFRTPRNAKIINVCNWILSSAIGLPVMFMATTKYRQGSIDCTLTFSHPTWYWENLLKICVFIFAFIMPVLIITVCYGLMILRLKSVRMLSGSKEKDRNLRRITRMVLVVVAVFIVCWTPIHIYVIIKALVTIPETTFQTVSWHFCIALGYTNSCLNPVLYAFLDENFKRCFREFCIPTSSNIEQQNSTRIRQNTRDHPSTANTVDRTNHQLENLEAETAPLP
Chain of ATP-dependent molecular chaperone HSP82 (C4YTQ8 whole entry): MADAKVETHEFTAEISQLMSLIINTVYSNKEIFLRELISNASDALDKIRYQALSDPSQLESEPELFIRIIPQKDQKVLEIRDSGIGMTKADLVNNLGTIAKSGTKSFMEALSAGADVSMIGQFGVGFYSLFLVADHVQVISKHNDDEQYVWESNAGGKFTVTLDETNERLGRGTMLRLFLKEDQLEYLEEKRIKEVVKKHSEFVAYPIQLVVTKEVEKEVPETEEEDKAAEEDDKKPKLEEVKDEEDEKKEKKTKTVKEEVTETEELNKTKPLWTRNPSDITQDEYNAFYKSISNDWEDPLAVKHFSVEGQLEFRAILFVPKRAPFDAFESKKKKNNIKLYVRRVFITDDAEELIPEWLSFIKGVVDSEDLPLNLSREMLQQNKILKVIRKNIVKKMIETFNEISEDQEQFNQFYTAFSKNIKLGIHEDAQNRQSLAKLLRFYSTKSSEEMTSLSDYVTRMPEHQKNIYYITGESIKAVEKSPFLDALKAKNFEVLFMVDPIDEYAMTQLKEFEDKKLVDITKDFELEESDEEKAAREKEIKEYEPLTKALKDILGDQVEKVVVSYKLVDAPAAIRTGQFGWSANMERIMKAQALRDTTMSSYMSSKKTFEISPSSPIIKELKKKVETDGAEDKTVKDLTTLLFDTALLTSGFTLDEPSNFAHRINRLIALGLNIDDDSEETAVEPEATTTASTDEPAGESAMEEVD

The term IC50 denotes the point on the concentration scale where inhibition reaches its midpoint. For `C[C@@H](CN1CCC(n2c(=O)[nH]c3cc(F)ccc32)CC1)NC(=O)c1ccc(F)c(F)c1`, the IC50 was 0.84 µM (active) on Phospholipase D2 and 0.012 µM (active) on Phospholipase D1.

By AC50 is commonly meant the midpoint of the concentration-response curve, whichever way the signal moves. In general, EC50 refers to the concentration that produces a half-maximal response. Regarding `Cc1ccc(NC(=O)c2ncn(CCCN[C@H](C)c3cccc4ccccc34)n2)cc1C`, the AC50 is 22.7 µM (active) in assay [1] and 25.8 µM (active) in the assay with A-375 [3]. The EC50 at Mu-type opioid receptor was > 10.3 µM (inactive); in assay [2], > 92.4 µM (inactive); in [4], > 92.4 µM (inactive).

In the case of `CCOC(=O)C1CCCN(S(=O)(=O)c2cc3nc(O)c(O)nc3cc2C)C1` (stereo not given), the AC50 on CAAX prenyl protease 2 was 21.8 µM (active).

For `CCOc1ccccc1-c1nc(-c2ccc(C)nc2OC)no1`, the AC50 in the assay with A-375 [3] and in the assay with A-375 [5] was > 35 µM (active) each time.

In the case of `CC(=O)Nc1c(C#N)c(-c2ccccc2)c(C#N)c(=O)n1-c1ccc(C)cc1`, the EC50 in assay [6] is 129 µM (active).

In the case of `CCOc1ccc(NC(S)=NNC(=O)c2ccc(Br)cc2)cc1`, the EC50 in assay [7] was > 160 µM (inactive); in assay [8], > 160 µM (inactive); in assay [10], > 180 µM (inactive); in assay [11], 0.688 µM (active). Also, the IC50 in [9] is reported as > 50 µM (not active).

As to `COc1ccc(C2C(C#N)=C(N)Oc3c2sc2nc(C)cc(C)c32)cc1` (stereo not given), the EC50 in assay [12] was 9.58 µM (inactive); in [13], 4.6 µM (active); in assay [14], 5.01 µM (active); in assay [15], 3.41 µM (active).
